Assay results: US9474790B2, “Stable, protracted GLP-1/glucagon receptor co-agonists for medical use” (Novo Nordisk A/S, priority 2013, dated 2016)
Numbered stars: 1 amine (or outer) side, 2 acyl side, 3 side chain; on linkers, the order of the positions; unused ones are H or OH. Square brackets hold non-standard residues; d marks the D form. Side chains are listed from the residue outwards. Peptide text beside a SMILES is read from it. * marks the point of attachment. C18 diacid = O=C(O)CCCCCCCCCCCCCCCCC(=O)*; γGlu = O=C(O)[C@H](CCC(=O)[*:2])N[*:1]; AEEA = NCCOCCOCC(=O)O; Aib = CC(C)(N)C(=O)O

Assay: Thioflavin T (ThT) fibrillation assay for physical stability
Format: physicochemical
Conditions: 250 μM in 10 mM HEPES buffer, pH 7.5, 37° C., shaking 960 rpm
Text: The purpose of this assay was to assess the physical stability of the glucagon derivatives of the invention in aqueous solutions.
Low physical stability of a peptide may lead to amyloid fibril formation, which is observed as well-ordered, thread-like macromolecular structures in the sample, which eventually may lead to gel formation. This has traditionally been measured by visual inspection of the sample. However, that kind of measurement is very subjective and depending on the observer. Therefore, the application of a small molecule indicator probe is much more advantageous. Thioflavin T (ThT) is such a probe and has a distinct fluorescence signature when binding to fibrils [Naiki et al; Anal. Biochem. 1989 177 244-249; LeVine; Methods. Enzymol. 1999 309 274-284].
The time course for fibril formation can be described by a sigmoidal curve with the following expression [Nielsen et al; Biochemistry 2001 40 6036-6046]:
Here, as depicted in FIG. 1, F is the ThT fluorescence at the time t. The constant t0 is the time needed to reach 50% of maximum fluorescence. The two important parameters describing fibril formation are the lag-time calculated by t0−2τ and the apparent rate constant kapp 1/τ.
Samples were prepared freshly before each assay. Each sample composition is described in the legends. The pH of the sample was adjusted to the desired value using appropriate amounts of concentrated NaOH and HCl. Thioflavin T was added to the samples from a stock solution in H2O to a final concentration of 1 μM.
Sample aliquots of 200 μl (250 μM of the glucagon derivative/analogue in 10 mM HEPES buffer, pH 7.5) were placed in a 96 well microtiter plate (Packard OptiPlate™-96, white polystyrene). Usually, four or eight replica of each sample (corresponding to one test condition) were placed in one column of wells. The plate was sealed with Scotch Pad (Qiagen).
Incubation at given temperature, shaking and measurement of the ThT fluorescence emission were done in a Fluoroskan Ascent FL fluorescence plate reader (Thermo Labsystems). The temperature was set to 37° C. and the plate was incubated with orbital shaking adjusted to 960 rpm with an amplitude of 1 mm. Fluorescence measurement was done using excitation through a 444 nm filter and measurement of emission through a 485 nm filter.
Each run was initiated by incubating the plate at the assay temperature for 10 min. The plate was measured every 20 minutes for a desired period of time. Between each measurement, the plate was shaken and heated as described.
After completion of the ThT assay the four or eight replica of each sample was pooled and centrifuged at 20000 rpm for 30 minutes at 18° C. The supernatant was filtered through a 0.22 μm filter and an aliquot was transferred to a HPLC vial.
The concentration of peptide in the initial sample and in the filtered supernatant was determined by reverse phase HPLC using an appropriate standard as reference. The percentage fraction the concentration of the filtered sample constituted of the initial sample concentration was reported as the recovery.
The measurement points were saved in Microsoft Excel format for further processing and curve drawing and fitting was performed using GraphPad Prism. The background emission from ThT in the absence of fibrils was negligible. The data points were typically a mean of four or eight samples.
The data set may be fitted to Eq. (1).

Compound | THT assay Lag time (Ex. 76)
CC(C)C[C@H](NC(=O)[C@H](Cc1ccc(O)cc1)NC(=O)[C@H](CCCCN)NC(=O)[C@H](CO)NC(=O)[C@H](CC(C)C)NC(=O)[C@H](CC(=O)O)NC(=O)[C@H](CO)NC(=O)[C@@H](NC(=O)[C@H](Cc1ccccc1)NC(=O)[C@@H](NC(=O)CNC(=O)[C@H](CCC(N)=O)NC(=O)C(C)(C)NC(=O)[C@@H](N)Cc1c[nH]cn1)[C@@H](C)O)[C@@H](C)O)C(=O)N[C@@H](CC(=O)O)C(=O)N[C@@H](CCCCNC(=O)CC[C@H](NC(=O)CC[C@H](NC(=O)COCCOCCNC(=O)COCCOCCNC(=O)CC[C@H](NC(=O)CCCCCCCCCCCCCCCCC(=O)O)C(=O)O)C(=O)O)C(=O)O)C(=O)N[C@@H](CCCCN)C(=O)N[C@@H](CCCNC(=N)N)C(=O)N[C@@H](C)C(=O)N[C@@H](CCC(N)=O)C(=O)N[C@@H](CCC(=O)O)C(=O)N[C@@H](Cc1ccccc1)C(=O)N[C@H](C(=O)N[C@@H](CCC(N)=O)C(=O)N[C@@H](Cc1c[nH]c2ccccc12)C(=O)N[C@@H](CC(C)C)C(=O)N[C@@H](CC(C)C)C(=O)N[C@@H](CC(N)=O)C(=O)N[C@H](C(N)=O)[C@@H](C)O)C(C)C [Example 7, N^ε16-[(4S)-4-carboxy-4-[[(4S)-4-carboxy-4-[[2-[2-[2-[[2-[2-[2-[[(4S)-4-carboxy-4-(17-carboxyheptadecanoylamino)butanoyl]amino]ethoxy]ethoxy]acetyl]amino]ethoxy]ethoxy]acetyl]amino]butanoyl]amino]butanoyl]-[Aib2,Leu10,Lys16,Lys17,Glu21,Leu27]-Glucagon amide] (H-H[Aib]QGTFTSDLSKYLDK([γGlu-γGlu-AEEA-AEEA-γGlu-C18 diacid])KRAQEFVQWLLNT-NH2; N-terminus assumed) | 45 h
CC(C)C[C@H](NC(=O)[C@H](Cc1c[nH]c2ccccc12)NC(=O)[C@H](C)NC(=O)[C@@H](NC(=O)[C@H](Cc1ccccc1)NC(=O)[C@H](CCC(=O)O)NC(=O)[C@H](CCCNC(=N)N)NC(=O)[C@H](C)NC(=O)[C@H](C)NC(=O)[C@H](CCCNC(=N)N)NC(=O)[C@H](CCCCNC(=O)CC[C@H](NC(=O)CC[C@H](NC(=O)COCCOCCNC(=O)COCCOCCNC(=O)CC[C@H](NC(=O)CCCCCCCCCCCCCCCCC(=O)O)C(=O)O)C(=O)O)C(=O)O)NC(=O)[C@H](CC(=O)O)NC(=O)[C@H](CC(C)C)NC(=O)[C@H](Cc1ccc(O)cc1)NC(=O)[C@H](CCCCN)NC(=O)[C@H](CO)NC(=O)[C@H](CC(C)C)NC(=O)[C@H](CC(=O)O)NC(=O)[C@H](CO)NC(=O)[C@@H](NC(=O)[C@H](Cc1ccccc1)NC(=O)[C@@H](NC(=O)CNC(=O)[C@H](CCC(N)=O)NC(=O)C(C)(C)NC(=O)[C@@H](N)Cc1c[nH]cn1)[C@@H](C)O)[C@@H](C)O)C(C)C)C(=O)N[C@@H](CC(C)C)C(=O)N[C@@H](CC(N)=O)C(=O)N[C@H](C(N)=O)[C@@H](C)O [Example 18, N^ε29-[(4S)-4-carboxy-4-[[(4S)-4-carboxy-4-[[2-[2-[2-[[2-[2-[2-[[(4S)-4-carboxy-4-(17-carboxyheptadecanoylamino)butanoyl]amino]ethoxy]ethoxy]acetyl]amino]ethoxy]ethoxy]acetyl]amino]butanoyl]amino]butanoyl]-[Aib2,Leu10,Lys16,Ala18,Arg20,Glu21,Ala-24,Leu27]-Glucagon amide] (H-H[Aib]QGTFTSDLSKYLDK([γGlu-γGlu-AEEA-AEEA-γGlu-C18 diacid])RAAREFVAWLLNT-NH2; N-terminus assumed) | 45 h
